{"source": "patent US20240075050A1", "about": "“Methods and Compositions for Treating Leucine Rich Repeat Kinase 2 (LRRK2)-Associated Disorder or Condition” (University of Connecticut, priority 2022, published 2024)", "key": {"DCP1A": {"test_system": "DCP1A", "assay": "DCP1A expression levels in SH-SY5Y cells, Western blot", "format": "cell-based, human", "details": "1 mM, 48 hours", "description": "FIGS. 6A-6E depict that the decapping enzyme complex DCP1/2 is involved in LRRK2 mRNA decay. FIGS. 6A and 6B depict the DCP1A and DCP2 expression levels upon AICAr treatment. SH-SY5Y cells were treated with or without 1 mM AICAr for 48 hours. DCP1A and DCP2 expression levels were analyzed by Western blot. Images were quantified by ImageJ software. Data are mean±SEM, n=3 independent experiments. **p<0.01 by Student's t tests. FIGS. 6C and 6D depict the LRRK2 expression levels upon DCP1A or DCP2 overexpression. SH-SY5Y cells were transduced with lentiviruses carrying Flag-DCP1A or Flag-DCP2 for 48 hours. LRRK2 expression levels were analyzed by Western blot. Images were quantified by ImageJ software. Data are mean±SEM, n=3 independent experiments. *p<0.05 by Student's t tests. FIG. 6E depict LRRK2 mRNA decapping by DCP1A and DCP2. Recombinant DCP1A and DCP2 proteins were purified from HEK 293T cells and incubated with [α-32P]cap-labeled LRRK2 RNA. LRRK2 mRNA decapping was analyzed by one-dimensional thin layer chromatography."}, "[1]": {"test_system": "GBA, α-Synuclein, VPS35, Parkin, PINK, and DJ-1", "assay": "Protein levels of other PD-associated proteins in HEK 293T cells, Western blot", "format": "cell-based, human", "details": "tagged proteins, 1 mM, 48 hours", "description": "FIGS. 2A-2T depicts that AICAr, the precursor of ATIC substrate, regulates LRRK2 expression levels and neuronal toxicity. FIGS. 2A and 2B depict the overexpressed LRRK2 levels in HEK 293T cells upon AICAr treatment. HEK293 cells were transfected with MYC-LRRK2 and treated with or without 1 mM AICAr for 48 hours. LRRK2 levels were analyzed by Western blot. FIGS. 2C and 2D depict the LRRK2 expression levels in SH-SY5Y cells upon AICAr treatment. Human neuroblastoma SH-SY5Y cells were treated with or without 1 mM AICAr for 48 hours. LRRK2 expression levels were analyzed by Western blot. FIGS. 2E and 2F depict the overexpressed (3-glucocerebrosidase (GCase) levels upon AICAr treatment. HEK 293T cells were transfected with V5-GCase and treated with or without 1 mM AICAr for 48 hours. GCase levels were analyzed by Western blot. FIGS. 2G-2N depict the LRRK2 expression levels in primary neurons (FIG. 2G and FIG. 2H), microglia (FIG. 2I and FIG. 2J), astrocytes (FIG. 2K and FIG. 2L) and human fibroblasts (FIG. 2M and FIG. 2N) upon AICAr treatment. Mouse primary cortical neurons, microglia, astrocytes or human fibroblasts from a health control were treated with or without 1 mM AICAr for 48 hours. LRRK2 expression levels were analyzed by Western blot. […] LRRK2 expression levels were analyzed by Western blot. […] Images were quantified by ImageJ software. […]"}}, "data": [{"smiles": "NC(=O)c1ncn([C@@H]2O[C@H](CO)[C@@H](O)[C@H]2O)c1N", "note": "[AICAr, 5-aminoimidazole-4-carboxamide riboside]", "values": [{"measurement": "endogenous levels of DCP1A", "setting": "DCP1A", "result": "significantly increased"}, {"measurement": "levels of other PD-associated proteins (GBA, α-Synuclein, VPS35, Parkin, PINK, DJ-1)", "setting": "[1]", "result": "no changes"}]}]}
